Reference: patent US4325974A, “β, γ-Dihydropolyprenyl alcohol and hypotensive pharmaceutical composition containing same” (Eisai Co., Ltd., priority 1978, dated 1982)

Columns and labels:
[1] = tested on: hepatic disease (hepatitis), induced by intraabdominal administration of D-galactosamine; assay: Effect on hepatic disease (hepatitis) induced by intraabdominal administration of D-galactosamine; format: in vivo; conditions: SD rats
Procedure: II. The effects of the formula (I) compound, according to the invention, on hepatic disease (hepatitis), induced by intraabdominal administration of D-galactosamine.
SD rats weighing about 250 g were used as test animals. D-Galactosamine hydrochloride (250 mg/kg each administration) and the test compound (50 mg/kg each administration) were administered intraabdominally to the rats on the schedule of experiments set forth below. After completion of the administration, blood was drawn from the test animals. The GPT value and alkali phosphatase value of the blood, which are indexes of the hepatic disease, were determined.
The test compound was used in the form of a suspension in 5% aqueous acacia solution. D-Galactosamine hydrochloride was used in the form of an aqueous solution thereof in distilled water, which solution was adjusted to pH 7 with potassium hydroxide. The rats were divided into three groups, i.e., a test compound group (comprising 9 rats) to which the test compound was administered, a control group (comprising 14 rats) to which 5% aqueous acacia solution free of the test compound was administered and a normal group (comprising 9 rats) to which neither the test compound nor D-galactosamine hydrochloride was administered. [drawing 9]

[2] = tested on: spontaneously hypertensive rats (SHR) of Okamoto and Aoki; assay: Hypotensive effect on spontaneously hypertensive rats (blood pressure, tail-cuff method; heart rate, tachometer); format: in vivo, rat (SHR of Okamoto and Aoki); conditions: 10 mg/kg oral
Procedure: I. The hypotensive effect of the formula (I) compound, according to the invention, on spontaneously hypertensive rats (hereinafter referred to as SHR) of Okamoto and Aoki:
The hypotensive effects of the test compounds on SHR of Okamoto and Aoki of about 35 weeks age were determined. The systolic blood pressure of the SHR was around 230 mmHg.
The test compounds were given to the SHR orally in the form of a suspension in aqueous acacia solution. The SHR were divided into a test compound group to which a test compound was administered and a control group to which only an aqueous acacia solution (free of test compound) was administered. Each group comprised three SHR.
The blood pressure of the SHR was measured with a Shimazu continuous tonometer SCS-301 (a product of Shimazu Seisakusho Co., Ltd.). Tail artery pressure was indirectly measured by a tail-cuff method.
The blood pressure was measured immediately before the administration and at 2, 4, 6 and 24 hours after the administration to determine the change in blood pressure with the passing of time.
The heart rate was determined by recording the pulse rate at the tail of the SHR with a tachometer of said tonometer […]. Test Compound and Dose
10 mg/kg (body weight of SHR)

## CC(C)=CCCC(C)=CCCC(C)=CCCC(C)=CCCC(C)=CCCC(C)=CCCC(C)=CCCC(C)=CCCC(C)=CCCC(C)CCO (centres unmarked) [test compound, 3,7, 11, 15, 19, 23, 27, 31, 35, 39-Decamethyl-6, 10, 14, 18, 22, 26, 30, 34, 38-tetracontanonaene-1-ol]
[1]; 50 mg/kg each intraabdominal, result in words
  effect on hepatic disease induced by D-galactosamine hydrochloride: ameliorated or prevented
[1]; test compound 50 mg/kg each and D-galactosamine hydrochloride 250 mg/kg each, intraabdominal, control 70.9 ± 3.9, normal 32.3 ± 2.5
  Alkali phosphatase value: 63.7 ± 4.3 KA-U
[1]; test compound 50 mg/kg each and D-galactosamine hydrochloride 250 mg/kg each, intraabdominal, control 1041.4 ± 200.8, normal 46.5 ± 4.9
  GPT Value: 523.3 ± 111.7 Carmen unit
[2]; 2 h, before administration 227±7 mmHg
  blood pressure two hours after the administration: 207±9 mmHg
[2]; 6 h, before administration 227±7 mmHg, control 232±7 mmHg at 6 h
  blood pressure six hours after the administration: 202±12 mmHg
[2]; 24 h, before administration 227±7 mmHg
  blood pressure 24 hours after the administration: 212±9 mmHg
[2]; result in words
  effect on the heart rate: No effect on the heart rate was observed
  hypotensive effect: clear, long-lasting hypotensive effect
